The source of these data is PMC4657098, “A Review of the Updated Pharmacophore for the Alpha 5 GABA(A) Benzodiazepine Receptor Model” (International Journal of Medicinal Chemistry, 2015).

pKi: −log10 of the molar value. Like-named read-outs stand apart in the source and are kept apart here.

For test [1], the system named is Bz BS of GABA(A) receptors. As to conditions: cited from earlier work.
The target of test [2] is T1, α1β3γ2 GABAA/BzR (Homo sapiens, UniProt P14867+P18507). Description: Competition binding to HEK cell membranes, α1β3γ2. The arrangement: expressed in transfected cells.
In test [3] the target is T1, α1β3γ2 GABAA/BzR. Set-up: expressed in transfected cells; host or cells: LTK cells (given for XLi-093 only). As to conditions: cited from earlier work.
The target in test [4] is T2, α5β3γ2 GABAA/BzR (Homo sapiens, UniProt P18507+P31644). Set-up: expressed in transfected cells; host or cells: LTK cells (given for XLi-093 only). The settings on record: cited from earlier work.
Another test deals with T3, α4β3γ2 GABAA/BzR (Homo sapiens, UniProt P18507+P48169).
T3 construct: expressed in transfected cells; host or cells: LTK cells (given for XLi-093 only)
Description: biochemical. It is filed as binding.

For test [5], the target named is T4, α2β3γ2 GABAA/BzR (Homo sapiens, UniProt P18507+P47869). Description: Competition binding to HEK cell membranes, α2β3γ2. The arrangement: expressed in transfected cells.
Test [6] addresses T5, α6β3γ2 GABAA/BzR (Homo sapiens, UniProt P18507+Q16445). Description: Competition binding to HEK cell membranes, α6β3γ2. The arrangement: expressed in transfected cells.
The target of test [7] is T6, α3β3γ2 GABAA/BzR (Homo sapiens, UniProt P18507+P34903). Set-up: expressed in transfected cells; host or cells: LTK cells (given for XLi-093 only). As to conditions: cited from earlier work.
The target in test [8] is T2, α5β3γ2 GABAA/BzR. Description: Competition binding to HEK cell membranes, α5β3γ2. Set-up: expressed in transfected cells.
The target in test [9] is T4, α2β3γ2 GABAA/BzR. The arrangement: expressed in transfected cells; host or cells: LTK cells (given for XLi-093 only). The settings on record: cited from earlier work.
Test [10] addresses T6, α3β3γ2 GABAA/BzR. Description: Competition binding to HEK cell membranes, α3β3γ2. Set-up: expressed in transfected cells.
The target in test [11] is T5, α6β3γ2 GABAA/BzR. The arrangement: expressed in transfected cells; host or cells: LTK cells (given for XLi-093 only). The settings on record: cited from earlier work.

Turning to `Cc1nnc2ccc(-c3cccc(C(F)(F)F)c3)nn12` [CL-218,872], in [1] (Supplement Table 1), the modulation result is “partial agonist”.
Turning to `COC(=O)c1cc2c(cn1)[nH]c1ccccc12` [-CCM, methyl beta-carboline-3-carboxylate], in test [1] (Supplement Table 1), the modulation entry is listed as “inverse agonist”.
On to `CCOC(=O)c1ncn2c1CN(C)C(=O)c1cc(F)ccc1-2` [Ro15-1788], for which, in test [1], the modulation result was “antagonist”.
For `Cc1nnc2n1-c1ccc(Cl)cc1C(c1ccccc1Cl)=NC2` [triazolam], the modulation result in test [1] (Supplement Table 1) is “agonist”.
One may read the pKi as the negative decadic logarithm of the Ki, by convention in mol/L. For the compound `CCOC(=O)c1cc2c(cn1)[nH]c1ccccc12` [BCCE, reference compound], the modulation result in test [1] was “inverse agonist”. The negative logarithm of the Ki (pKi) on α1β3γ2 GABAA/BzR [2] (read-out: Ki α1) was 8.92.
`CC(C)(C)OC(=O)c1cc2c(cn1)[nH]c1ccc(C(C)(C)C)cc12` [CM-A82a]: the pKi at α1β3γ2 GABAA/BzR [3] (read-out: Affinity Ki α1) is 8.56; at α5β3γ2 GABAA/BzR [4] (read-out: Affinity Ki α5), 8.13; on α4β3γ2 GABAA/BzR it was 6.00; on α2β3γ2 GABAA/BzR [5] (Ki α2) it was 8.05; at α2β3γ2 GABAA/BzR [5] (read-out: Ki α2), 8.05; on α6β3γ2 GABAA/BzR [6] (Ki α6) it was 6.00. The pKi was 7.61 at α3β3γ2 GABAA/BzR [7] (read-out: Affinity Ki α3); 8.13 on α5β3γ2 GABAA/BzR [8] (Ki α5); 8.13 at α5β3γ2 GABAA/BzR [8] (read-out: Ki α5); 8.05 at α2β3γ2 GABAA/BzR [9] (read-out: Affinity Ki α2); 7.61 at α3β3γ2 GABAA/BzR [10] (Ki α3); 7.61 at α3β3γ2 GABAA/BzR [10] (read-out: Ki α3). The pKi on α1β3γ2 GABAA/BzR [2] (Ki α1) and on α1β3γ2 GABAA/BzR [2] (read-out: Ki α1) was 8.56 each time.
For `CN1Cc2c(CCl)ncn2-c2ccc(Cl)cc2C1=O` [compound 5], the pKi was below 6.52 at α1β3γ2 GABAA/BzR [3] (Figure 4, read-out: Ki α1); 7.55 at α5β3γ2 GABAA/BzR [4] (Figure 4, read-out: Ki α5); below 6.52 at α3β3γ2 GABAA/BzR [7] (Figure 4, read-out: Ki α3); below 6.52 on α2β3γ2 GABAA/BzR [9] (Figure 4, read-out: Ki α2); below 6.52 at α6β3γ2 GABAA/BzR [11] (Figure 4, read-out: Ki α6).
Regarding `O=C(OCC(F)(F)F)c1cc2c(cn1)[nH]c1ccccc12` [MMB-II-74], the negative logarithm of the Ki (pKi) on α4β3γ2 GABAA/BzR (read-out: Ki α4) is 6.30; on α2β3γ2 GABAA/BzR [5] (read-out: Ki α2) it was 7.61; on α6β3γ2 GABAA/BzR [6] (read-out: Ki α6), 6.00; on α5β3γ2 GABAA/BzR [8] (read-out: Ki α5), 6.90; on α3β3γ2 GABAA/BzR [10] (read-out: Ki α3), 7.38; at α1β3γ2 GABAA/BzR [2] (read-out: Ki α1), 8.52.
For the compound `CC(C)(C)OC(=O)c1cc2c(cn1)[nH]c1ccc(-c3ccco3)cc12` [WYS13], the negative-log Ki (pKi) on α1β3γ2 GABAA/BzR [3] (read-out: Affinity Ki α1) was 8.62; at α5β3γ2 GABAA/BzR [4] (read-out: Affinity Ki α5), 6.79; on α2β3γ2 GABAA/BzR [5] (read-out: Ki α2), 7.89; on α6β3γ2 GABAA/BzR [6] (read-out: Ki α6), 5.30; on α3β3γ2 GABAA/BzR [7] (read-out: Affinity Ki α3), 7.56; on α5β3γ2 GABAA/BzR [8] (read-out: Ki α5) it was 6.79. The pKi was 7.89 on α2β3γ2 GABAA/BzR [9] (read-out: Affinity Ki α2), 5.30 at α6β3γ2 GABAA/BzR [11] (read-out: Affinity Ki α6), 7.56 at α3β3γ2 GABAA/BzR [10] (read-out: Ki α3) and 8.61 at α1β3γ2 GABAA/BzR [2] (read-out: Ki α1).
Turning to `COc1ccc2c(c1)C(=O)N1CC[C@H]1c1c(C(=O)OC(C)(C)C)ncn1-2` [CM-D45], the pKi on α4β3γ2 GABAA/BzR (read-out: Ki α4) was 9.82; on α2β3γ2 GABAA/BzR [5] (read-out: Ki α2) it was 7.18; at α6β3γ2 GABAA/BzR [6] (read-out: Ki α6), 9.64; at α5β3γ2 GABAA/BzR [8] (read-out: Ki α5), 8.78; on α3β3γ2 GABAA/BzR [10] (read-out: Ki α3) it was 7.52; at α1β3γ2 GABAA/BzR [2] (read-out: Ki α1), 7.04.
As to `C#Cc1ccc2[nH]c3cnc(C(=O)OCC(F)(F)F)cc3c2c1` [WY-B-26-2], the negative logarithm of the Ki (pKi) on α1β3γ2 GABAA/BzR [3] (read-out: Affinity Ki α1) was 8.35; on α5β3γ2 GABAA/BzR [4] (read-out: Affinity Ki α5), 6.91; at α4β3γ2 GABAA/BzR, 5.70; at α2β3γ2 GABAA/BzR [5] (Ki α2), 7.35; on α6β3γ2 GABAA/BzR [6] (Ki α6), 5.70; at α3β3γ2 GABAA/BzR [7] (read-out: Affinity Ki α3) it was 7.37. Further, the negative-log Ki (pKi) at α5β3γ2 GABAA/BzR [8] (Ki α5) was 6.91; on α2β3γ2 GABAA/BzR [9] (read-out: Affinity Ki α2) it was 7.35; on α3β3γ2 GABAA/BzR [10] (Ki α3) it was 7.37; on α1β3γ2 GABAA/BzR [2] (Ki α1), 8.35.
For `CCc1c(C(=O)OC)ncc2[nH]c3cc(OC)c(OC)cc3c12` [DMCM, reference compound], in test [1], the modulation entry is reported as “inverse agonist”. Besides, the pKi was 8.08 on α2β3γ2 GABAA/BzR [5] (read-out: Ki α2); 6.87 on α6β3γ2 GABAA/BzR [6] (read-out: Ki α6); 8.98 on α5β3γ2 GABAA/BzR [8] (read-out: Ki α5); 8.40 at α3β3γ2 GABAA/BzR [10] (read-out: Ki α3); 8.24 on α1β3γ2 GABAA/BzR [2] (read-out: Ki α1).
Turning to `Cc1ncc2n1-c1ccc(Cl)cc1C(c1ccccc1F)=NC2` [midazolam], the modulation result in [1] (Supplement Table 1) is “agonist”.
